Data published in PubChem BioAssay (NCI).
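96-well plates; 48 h exposure; 5 concentrations. Endpoints by linear interpolation between flanking doses. Not reached: highest tested concentration assigned. The concentration for full growth arrest is given as TGI.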

Tests used:
Assay in all cases: NCI tumour cell line growth inhibition, 48 h
SN12C renal = system: SN12C renal
OVCAR-5 ovarian = system: OVCAR-5 ovarian
HCC-2998 colon = system: HCC-2998 colon
SK-OV-3 ovarian = system: SK-OV-3 ovarian
MDA-MB-435 = system: MDA-MB-435
MALME-3M melanoma = system: MALME-3M melanoma
UACC-62 melanoma = system: UACC-62 melanoma
HOP-18 NSCLC = system: HOP-18 NSCLC
XF 498 CNS = system: XF 498 CNS
COLO 205 colon = system: COLO 205 colon
HOP-62 NSCLC = system: HOP-62 NSCLC
A549 NSCLC = system: A549 NSCLC
DMS 273 small cell lung = system: DMS 273 small cell lung
P388/ADR leukemia = system: P388/ADR leukemia
IGROV1 ovarian = system: IGROV1 ovarian
RXF 393 renal = system: RXF 393 renal
KM12 colon = system: KM12 colon
UACC-257 melanoma = system: UACC-257 melanoma
RPMI-8226 leukemia = system: RPMI-8226 leukemia
SK-MEL-28 melanoma = system: SK-MEL-28 melanoma
U251 CNS = system: U251 CNS
HOP-92 NSCLC = system: HOP-92 NSCLC
MDA-N = system: MDA-N
786-0 renal = system: 786-0 renal
SF-295 CNS = system: SF-295 CNS
OVCAR-8 ovarian = system: OVCAR-8 ovarian
SF-539 CNS = system: SF-539 CNS
NCI-H23 lung = system: NCI-H23 lung
M14 melanoma = system: M14 melanoma
NCI-H522 lung = system: NCI-H522 lung
BT-549 breast = system: BT-549 breast
NCI-H460 lung = system: NCI-H460 lung
SNB-19 CNS = system: SNB-19 CNS
K-562 leukemia = system: K-562 leukemia
A498 renal = system: A498 renal
P388 leukemia = system: P388 leukemia
CCRF-CEM leukemia = system: CCRF-CEM leukemia
ACHN renal = system: ACHN renal
HL-60(TB) leukemia = system: HL-60(TB) leukemia
DLD-1 colon = system: DLD-1 colon
M19-MEL melanoma = system: M19-MEL melanoma
HS 578T breast = system: HS 578T breast
TK-10 renal = system: TK-10 renal
SF-268 CNS = system: SF-268 CNS
KM20L2 colon = system: KM20L2 colon
MDA-MB-231 breast = system: MDA-MB-231 breast
DMS 114 small cell lung = system: DMS 114 small cell lung
NCI/ADR-RES ovarian = system: NCI/ADR-RES ovarian
OVCAR-4 ovarian = system: OVCAR-4 ovarian
EKVX NSCLC = system: EKVX NSCLC
MCF7 breast = system: MCF7 breast
SNB-78 CNS = system: SNB-78 CNS
NCI-H226 lung = system: NCI-H226 lung
SN12K1 renal = system: SN12K1 renal
LOX IMVI melanoma = system: LOX IMVI melanoma
HCT-15 colon = system: HCT-15 colon
HT29 colon = system: HT29 colon
SK-MEL-5 melanoma = system: SK-MEL-5 melanoma
SNB-75 CNS = system: SNB-75 CNS
MOLT-4 leukemia = system: MOLT-4 leukemia
DU-145 prostate = system: DU-145 prostate
OVCAR-3 ovarian = system: OVCAR-3 ovarian
HCT-116 colon = system: HCT-116 colon
SW-620 colon = system: SW-620 colon
SK-MEL-2 melanoma = system: SK-MEL-2 melanoma
SR leukemia = system: SR leukemia
CAKI-1 renal = system: CAKI-1 renal
PC-3 prostate = system: PC-3 prostate
UO-31 renal = system: UO-31 renal
T-47D breast = system: T-47D breast

`CNC(=O)OCc1nc(SC)n(C)c1COC(=O)NC` showed a TGI (SN12C renal) of 309 µM, a TGI (OVCAR-5 ovarian) of 451 µM and a TGI (HCC-2998 colon) of 307 µM. For the same compound, the TGI (SK-OV-3 ovarian) was 525 µM, the TGI (MDA-MB-435) was 327 µM and the TGI (MALME-3M melanoma) was 253 µM. For the same compound, the TGI (UACC-62 melanoma) was 103 µM, the TGI (HOP-18 NSCLC) was 491 µM and the TGI (XF 498 CNS) was 446 µM. For the same compound, the TGI (COLO 205 colon) was 295 µM, the TGI (HOP-62 NSCLC) was 92.2 µM and the TGI (A549 NSCLC) was 836 µM. The TGI (DMS 273 small cell lung) was 251 µM, the TGI (P388/ADR leukemia) was 611 µM and the TGI (IGROV1 ovarian) was 531 µM. It also gave a TGI (RXF 393 renal) of 169 µM, a TGI (KM12 colon) of 380 µM and a TGI (UACC-257 melanoma) of 335 µM. The TGI (RPMI-8226 leukemia) was 736 µM, the TGI (SK-MEL-28 melanoma) was 380 µM and the TGI (U251 CNS) was 599 µM. The TGI (HOP-92 NSCLC) was 376 µM, the TGI (MDA-N) was 310 µM and the TGI (786-0 renal) was 413 µM. For the same compound, the TGI (SF-295 CNS) was 551 µM, the TGI (OVCAR-8 ovarian) was 472 µM and the TGI (SF-539 CNS) was 299 µM. It also gave a TGI (NCI-H23 lung) of 329 µM, a TGI (M14 melanoma) of 347 µM and a TGI (NCI-H522 lung) of 246 µM. The TGI (BT-549 breast) was 300 µM, the TGI (NCI-H460 lung) was 264 µM and the TGI (SNB-19 CNS) was 743 µM. It also gave a TGI (K-562 leukemia) of 508 µM, a TGI (A498 renal) of 386 µM and a TGI (P388 leukemia) of 331 µM. The TGI (CCRF-CEM leukemia) was 494 µM, the TGI (ACHN renal) was 361 µM and the TGI (HL-60(TB) leukemia) was 262 µM. For the same compound, the TGI (DLD-1 colon) was 494 µM, the TGI (M19-MEL melanoma) was 369 µM and the TGI (HS 578T breast) was 438 µM. It also gave a TGI (TK-10 renal) of 702 µM, a TGI (SF-268 CNS) of 450 µM and a TGI (KM20L2 colon) of 482 µM. The TGI (MDA-MB-231 breast) was 430 µM, the TGI (DMS 114 small cell lung) was 199 µM and the TGI (NCI/ADR-RES ovarian) was 535 µM. It also gave a TGI (OVCAR-4 ovarian) of 281 µM, a TGI (EKVX NSCLC) of 492 µM and a TGI (MCF7 breast) of 622 µM. The TGI (SNB-78 CNS) was 359 µM, the TGI (NCI-H226 lung) was 400 µM and the TGI (SN12K1 renal) was 250 µM. For the same compound, the TGI (LOX IMVI melanoma) was 364 µM, the TGI (HCT-15 colon) was 410 µM and the TGI (HT29 colon) was 605 µM. It also gave a TGI (SK-MEL-5 melanoma) of 327 µM, a TGI (SNB-75 CNS) of 349 µM and a TGI (MOLT-4 leukemia) of 142 µM. For the same compound, the TGI (DU-145 prostate) was 379 µM, the TGI (OVCAR-3 ovarian) was 444 µM and the TGI (HCT-116 colon) was 372 µM. It also gave a TGI (SW-620 colon) of 685 µM, a TGI (SK-MEL-2 melanoma) of 290 µM and a TGI (SR leukemia) of 473 µM. For the same compound, the TGI (CAKI-1 renal) was 497 µM, the TGI (PC-3 prostate) was 484 µM and the TGI (UO-31 renal) was 444 µM. For the same compound, the TGI (T-47D breast) was 554 µM.
